Measurements reported in ChEMBL document CHEMBL2202954, “The effect of PLC-γ2 inhibitors on the growth of human tumour cells” (2012).

Key:
Assay type in all cases: functional
[1] = test system: Malme-3M; assay: Cytotoxicity against human MALME-3M cells assessed as cellular growth at 10 uM by SRB assay
[2] = test system: HCT-116; assay: Cytotoxicity against human HCT116 cells assessed as cellular growth at 10 uM by SRB assay
[3] = test system: MDA-MB-435; assay: Cytotoxicity against human MDA-MB-435 cells assessed as cellular growth at 10 uM by SRB assay
[4] = test system: IGROV-1; assay: Cytotoxicity against human IGROV1 cells assessed as cellular growth at 10 uM by SRB assay
[5] = test system: DU-145; assay: Cytotoxicity against human DU145 cells assessed as cellular growth at 10 uM by SRB assay
[6] = test system: COLO 205; assay: Cytotoxicity against human COLO205 cells assessed as cellular growth at 10 uM by SRB assay
[7] = test system: NCI-H460; assay: Cytotoxicity against human NCI-H460 cells assessed as cellular growth at 10 uM by SRB assay
[8] = test system: OVCAR-5; assay: Cytotoxicity against human OVCAR5 cells assessed as cellular growth at 10 uM by SRB assay
[9] = test system: SK-MEL-5; assay: Cytotoxicity against human SK-MEL-5 cells assessed as cellular growth at 10 uM by SRB assay
[10] = test system: SK-MEL-2; assay: Cytotoxicity against human SK-MEL-2 cells assessed as cellular growth at 10 uM by SRB assay
[11] = test system: MDA-MB-468; assay: Cytotoxicity against human MDA-MB-468 cells assessed as cellular growth at 10 uM by SRB assay
[12] = test system: A549; assay: Cytotoxicity against human A549 cells assessed as cellular growth at 10 uM by SRB assay
[13] = test system: SK-OV-3; assay: Cytotoxicity against human SKOV3 cells assessed as cellular growth at 10 uM by SRB assay
[14] = test system: HOP-62; assay: Cytotoxicity against human HOP62 cells assessed as cellular growth at 10 uM by SRB assay
[15] = test system: OVCAR-4; assay: Cytotoxicity against human OVCAR4 cells assessed as cellular growth at 10 uM by SRB assay
[16] = test system: MOLT-4; assay: Cytotoxicity against human MOLT4 cells assessed as cellular growth at 10 uM by SRB assay
[17] = test system: MDA-MB-231; assay: Cytotoxicity against human MDA-MB-231 cells assessed as cellular growth at 10 uM by SRB assay
[18] = test system: K562; assay: Cytotoxicity against human K562 cells assessed as cellular growth at 10 uM by SRB assay
[19] = test system: OVCAR-8; assay: Cytotoxicity against human OVCAR8 cells assessed as cellular growth at 10 uM by SRB assay
[20] = test system: HOP-92; assay: Cytotoxicity against human HOP92 cells assessed as cellular growth at 10 uM by SRB assay

| Compound | Activity [1] [%] | Activity [2] [%] | Activity [3] [%] | Activity [4] [%] | Activity [5] [%] | Activity [6] [%] | Activity [7] [%] | Activity [8] [%] | Activity [9] [%] | Activity [10] [%] | Activity [11] [%] | Activity [12] [%] | Activity [13] [%] | Activity [14] [%] | Activity [15] [%] | Activity [16] [%] | Activity [17] [%] | Activity [18] [%] | Activity [19] [%] | Activity [20] [%] |
| --- | --- | --- | --- | --- | --- | --- | --- | --- | --- | --- | --- | --- | --- | --- | --- | --- | --- | --- | --- | --- |
| O=C(Nc1ccc2oc(=O)ccc2c1)c1ccc(-c2ccc(Cl)c(Cl)c2)o1 | 100.19 | 57.64 | 88.86 | 106.69 | 92.43 | 121.29 | 100.41 | 99.5 | 87.91 | 102.15 | 97.57 | 50.07 | 107.01 | 109.12 | 91.52 | 73.02 | 86.89 | 65.27 | 94.2 | – |
| Nc1c(C(=O)Nc2cccc(Cl)c2)sc2nc3c(cc12)C(=O)CCC3 | 49.7 | 27.38 | -39.08 | 52.39 | 11.61 | 10.22 | 10.27 | 58.33 | 27.21 | 69.74 | -10.56 | 28.25 | 35.17 | 47.04 | 60.44 | 57.06 | 43.9 | 22.78 | 75.34 | – |
| O=C(Nc1ccc2oc(=O)ccc2c1)c1ccc(-c2ccc(Br)cc2)o1 | 130.92 | 103.94 | 112.48 | 126.49 | 109.38 | 124.46 | 100.9 | 121.34 | 100.82 | 121.49 | 122.28 | 100.63 | 112.03 | 106.69 | – | 96.93 | 104.85 | 95.77 | 101.05 | 97.44 |
| Nc1c(C(=O)Nc2ccc(Cl)c(Cl)c2)sc2nc(-c3cccs3)ccc12 | 90.04 | 75.19 | 83.41 | 122.32 | 91.96 | 115.1 | 103.53 | 94.42 | 90.4 | 58.47 | 19.37 | 54.62 | 105.1 | 100.28 | 55.74 | 83.49 | 84.38 | 86.57 | 98.27 | – |
| Cc1ccccc1NC(=O)c1sc2nc3c(cc2c1N)C(=O)CCC3 | 66.45 | 34.55 | -12.89 | 77.05 | 18.31 | 6.12 | 15.33 | 80.78 | 18.64 | 58.56 | -4.56 | 37.59 | 22.08 | 38.2 | 67.57 | 67.51 | 61.61 | 22.15 | 78.59 | – |
| Oc1ccccc1-c1nc(-c2cccs2)no1 | 105.64 | 104.63 | 112.76 | 86.9 | 114.11 | 111.09 | 95.65 | – | 88.2 | 107.16 | 44.64 | 99.05 | 99.86 | 88.78 | – | 99.05 | 71.74 | 96.52 | 102.43 | 50.86 |
| O=c1/c(=C/c2ccc(Cl)cc2Cl)sc2nc(-c3ccccc3)nn12 | 136.07 | 106.75 | 106.5 | 130.42 | 102.1 | 132.3 | 106.83 | – | 106.75 | 107.26 | 112.09 | 107.72 | 109.75 | 120.5 | – | 88.5 | 98.54 | 98.67 | 110.37 | 104.34 |
| Nc1c(C(=O)Nc2ccccc2F)sc2nc3c(cc12)C(=O)CCC3 | – | 32.04 | -25.93 | – | 8.4 | 5.76 | 11.41 | 71.12 | 17.91 | 42.64 | -15.24 | 22.02 | 13.58 | 42.7 | – | 73.64 | 48.88 | 26.33 | 58.62 | 53.65 |
